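Results reflect a 48-hour exposure of cells in 96-well plates to compound at five concentrations. GI50 is the concentration that inhibits growth by half. TGI is the concentration that stops growth completely.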 Where a SMILES comes first, the peptide text is derived from it.
Experiments:
Assay in all cases: NCI tumour cell line growth inhibition, 48 h
DU-145 prostate = tested on: DU-145 prostate
U251 CNS = tested on: U251 CNS
SK-MEL-28 melanoma = tested on: SK-MEL-28 melanoma
OVCAR-3 ovarian = tested on: OVCAR-3 ovarian
COLO 205 colon = tested on: COLO 205 colon
SNB-75 CNS = tested on: SNB-75 CNS
SN12C renal = tested on: SN12C renal
NCI-H460 lung = tested on: NCI-H460 lung
RPMI-8226 leukemia = tested on: RPMI-8226 leukemia
KM20L2 colon = tested on: KM20L2 colon
M19-MEL melanoma = tested on: M19-MEL melanoma

SMILES	TGI (DU-145 prostate) [µM]	TGI (U251 CNS) [µM]	TGI (SK-MEL-28 melanoma) [µM]	TGI (OVCAR-3 ovarian) [µM]	TGI (COLO 205 colon) [µM]	TGI (SNB-75 CNS) [µM]	TGI (SN12C renal) [µM]	TGI (NCI-H460 lung) [µM]	TGI (RPMI-8226 leukemia) [µM]	TGI (KM20L2 colon) [µM]	TGI (M19-MEL melanoma) [µM]	GI50 (DU-145 prostate) [µM]	GI50 (SK-MEL-28 melanoma) [µM]	GI50 (OVCAR-3 ovarian) [µM]	GI50 (COLO 205 colon) [µM]	GI50 (SNB-75 CNS) [µM]	GI50 (SN12C renal) [µM]
Cc1cc2c(cc1Cl)SC(c1ccccc1O)NS2(=O)=O (configuration not stated)	> 100	> 100	> 100	78.4	69	> 100	> 100	> 100	–	–	–	–	–	–	–	–	–
COC(=O)[C@]12CSC[C@H]1C[C@H](c1cccc3ccccc13)N2	> 100	> 100	> 100	> 100	> 100	> 100	> 100	> 100	> 100	–	–	–	–	–	–	–	–
O=C1CC2CC(CC3(CO3)C2)C1F (configuration not stated)	> 100	> 100	> 100	–	> 100	> 100	> 100	> 100	> 100	–	–	–	–	–	–	–	–
O=C(CSSCC(=O)OCCS(=O)(=O)Nc1ccc(Br)cc1)OCCS(=O)(=O)Nc1ccc(Br)cc1	–	> 100	96.4	37.6	62.2	66.6	59.8	> 100	83.7	> 100	56.4	–	–	–	–	–	–
O=c1c(-c2ccccc2)c(SCCN2CCOCC2)n(-c2ccccc2)c(=S)n1-c1ccccc1	> 100	> 100	> 100	> 100	> 100	87.6	–	> 100	> 100	–	–	–	–	–	–	–	–
COc1cc(/C=C2\N=C(c3ccccc3)N(c3nc4ccc(Sc5ccccc5)cc4[nH]3)C2=O)cc(OC)c1OC	75.8	43.9	67.4	> 100	33	> 100	92.4	51.4	56.4	–	–	–	–	–	–	–	–
Cc1cc(=O)n2c3c(c4c(cc13)c(CN(C)C)cc(=O)n4C)OC2	> 75.9	> 100	> 85.8	80.1	35.1	58.6	> 100	> 100	> 100	–	–	–	–	–	–	–	–
Cn1c2cn[nH]c(=O)c2c2ccc3ccccc3c21	> 100	47.1	–	> 100	> 100	38.3	> 100	> 100	> 100	–	–	–	–	–	–	–	–
COc1ccc2c(c1)CCCc1c-2nc2ccccc2c1N	26.1	25.2	25.5	27.5	3.22	22.6	17.9	16.9	27.3	–	–	–	–	–	–	–	–
O=C(NC(Cc1ccc(Cl)cc1)C(=O)O)c1ccc(I)cc1 (configuration not stated)	–	> 100	> 100	> 100	> 100	> 100	> 100	> 100	> 100	–	> 100	–	–	–	–	–	–
COc1ccc(N=Nc2c(N)nn(C)c2N)cc1	–	> 100	> 100	> 100	> 100	> 100	> 100	> 100	> 100	> 100	> 100	–	–	–	–	–	–
CCCCCCCCCCCCSC(=S)c1c(C)[nH]n(CCCCCCCCCCCC)c1=O	–	> 100	> 100	> 100	> 100	> 100	> 100	> 100	> 100	> 100	> 100	–	–	–	–	–	–
O=C1CS(=O)(=O)C(c2cccc(Oc3ccccc3)c2)N1C1CC1 (configuration not stated)	> 100	> 100	> 100	> 100	72.9	80.7	> 100	> 100	–	–	–	–	–	–	–	–	–
CN1NC(c2ccccc2)=C(C#N)C(=O)CC1c1ccc(F)cc1 (configuration not stated)	–	> 100	> 100	–	> 100	> 100	> 100	> 100	> 100	–	–	–	–	–	–	–	–
CCC(C)C(NC(=O)C(CC(C)C)NC(=O)CNC(=O)C(NC(=O)C1CCCN1C(=O)C(CC(C)C)NC(=O)C(N)Cc1ccccc1)C(C)CC)C(=O)NC(CC(C)C)C(N)=O (configuration not stated) (H-FLPIGLIL-NH2; configuration not given here)	> 75	> 75	> 75	> 75	> 75	–	> 75	–	> 75	–	–	–	–	–	–	–	–
Cc1ccc(C(=O)N/N=C(\N=Nc2ccccc2Cl)c2ccc(N(C)C)cc2)cc1	70.6	> 100	> 100	> 100	> 100	–	> 100	> 100	> 100	–	–	–	–	–	–	–	–
CC(C)(C)c1cc(-c2nc3ccc(N4CCN(CCO)CC4)cc3[nH]2)cc(C(C)(C)C)c1O	> 100	–	3.1	> 100	4.78	4.55	> 100	–	–	–	–	4.08	1.68	3.36	2.21	1.21	3.77
CCCCCCCCCCCCCCCCCC(=O)OCC1OC(OC)C(NC(=O)N(CCCl)N=O)C(O)C1O (configuration not stated)	–	–	53.1	65.6	> 100	41.6	30.3	33.5	85.8	–	> 100	–	–	–	–	–	–
CCC12C=CCN3CCC4(c5cc(C(c6ccc(OC)cc6)C6Cc7ccccc7N6)c(OC)cc5N(C)C4C(O)(C(=O)OC)C1O)C32 (configuration not stated)	> 100	35.4	> 100	94.9	27.5	33.7	> 100	54.5	13.8	–	–	–	–	–	–	–	–
CCN(CCO)CCNc1ccc(C)c2sc3ccccc3c(=O)c12	21.8	12.4	3.77	23.3	3.12	12	23.9	3.88	20.3	7.27	3.63	–	–	–	–	–	–

— PubChem BioAssay (NCI)
